Laboratory results published in US9657351B2, “MRNA-based gene expression for personalizing patient cancer therapy with an MDM2 antagonist” (Hoffmann-La Roche Inc., priority 2013, dated 2017).

Legend:
Assay in all cases: COMPOUND A In Vitro Assay
Format in all cases: cell-based
A-204 = conditions: Homo sapiens, A204, Muscle, TP53 Mutant
Description: (§1) To generate an MDM2 antagonist therapy predictive signature, the response of MDM2 antagonist therapy in vitro with gene expression profiling (FIG. 1) is combined. A bank of 287 human cancer cell lines, collectively termed the Cell Lines for Oncology/Chugai ACcumulative Tumour EncycLopedia (CELLO/CACTEL), representing a broad array of diverse human cancer tumor types are subject to evaluation using several high-throughput genomic technology platforms. The mutational status of nucleic acids from each cell line is determined by exome sequencing. Messenger RNA (mRNA) expression levels at baseline, prior to MDM2 antagonist therapy, are obtained via RNA sequencing. MDM2 antagonist therapy COMPOUND A, sometimes referred to herein as RG7112, responses are obtained by assays known to those skilled in the art such as RNA sequencing and microarray measurement using Gene Chip Human Genome U133 Plus 2.0 Array. The MDM2 therapy responses are obtained by high throughout screening assays. Depending on their responses to COMPOUND A these cell lines are classified as either sensitive, defined as IC50<=1, or resistant, defined as IC50>=10.
(§2) 281 cells are treated with MDM2 antagonists and the IC50 (therapy response) is generated. The cell lines span a broad range of tumor cell types of derivation.

A549 = conditions: Homo sapiens
Description: as §1, §2

BFTC-905 = conditions: Homo sapiens, Urinary, bladder, TP53 Mutant
Description: as §1, §2

CAMA-1 = conditions: Homo sapiens, Breast, mammary gland, TP53 Mutant
Description: as §1, §2

CFPAC-1 = conditions: Homo sapiens, Pancreas, TP53 Mutant
Description: as §1, §2

D-283MED = conditions: Homo sapiens, D283 Med, tissue NA, TP53 Wild type
Description: as §1, §2

HCC1500 = conditions: Homo sapiens, Breast, mammary gland, TP53 Wild type
Description: as §1, §2

HCC1569 = conditions: Homo sapiens, Breast, mammary gland, TP53 Mutant
Description: as §1, §2

HT-29 = conditions: Homo sapiens, Intestine, large, colon, TP53 Mutant
Description: as §1, §2

HeLa S3 = conditions: Homo sapiens, Cervix, TP53 Mutant
Description: as §1, §2

Hs 578T = conditions: Homo sapiens, Breast, mammary gland, TP53 Mutant
Description: as §1, §2

KG-1 = conditions: Homo sapiens, Bone marrow, TP53 Mutant
Description: as §1, §2

KMS-20 = conditions: Homo sapiens, Lymphocyte, TP53 Mutant
Description: as §1, §2

LoVo = conditions: Homo sapiens, Intestine, large, colon, TP53 Wild type
Description: as §1, §2

MC/CAR = conditions: Homo sapiens
Description: as §1, §2

MCF7 = conditions: Homo sapiens
Description: as §1, §2

MG-63 = conditions: Homo sapiens, Bone, TP53 Mutant
Description: as §1, §2

MKN-1 = conditions: Homo sapiens, Muscle, smooth, stomach, TP53 Mutant
Description: as §1, §2

NCCIT = conditions: Homo sapiens, Germ cell, gametocyte, TP53 Mutant
Description: as §1, §2

NCI-H1568 = conditions: Homo sapiens, tissue NA, TP53 Mutant
Description: as §1, §2

NCI-H1703 = conditions: Homo sapiens, Lung, TP53 Mutant
Description: as §1, §2

NCI-H1993 = conditions: Homo sapiens, Lung, TP53 Mutant
Description: as §1, §2

NCI-H2009 = conditions: Homo sapiens, Lung, TP53 Mutant
Description: as §1, §2

NCI-H2171 = conditions: Homo sapiens, Lung, TP53 Mutant
Description: as §1, §2

NCI-H2227 = conditions: Homo sapiens, Lung, TP53 Mutant
Description: as §1, §2

NCI-H522 = conditions: Homo sapiens, Lung, TP53 Mutant
Description: as §1, §2

NOMO-1 = conditions: Homo sapiens, Bone marrow, TP53 Mutant
Description: as §1, §2

NUGC-4 = conditions: Homo sapiens
Description: as §1, §2

PA-1 = conditions: Homo sapiens
Description: as §1, §2

PC-1 = conditions: Homo sapiens, tissue null, TP53 Wild type
Description: as §1, §2

Raji = conditions: Homo sapiens, Lymphocyte B, TP53 Mutant
Description: as §1, §2

SK-MEL-30 = conditions: Homo sapiens, Skin, TP53 Mutant
Description: as §1, §2

SK-OV-3 = conditions: Homo sapiens, Ovary, TP53 Mutant
Description: as §1, §2

SW579 = conditions: Homo sapiens, Thyroid gland, TP53 Mutant
Description: as §1, §2

T84 = conditions: Homo sapiens, Intestine, large, colon, TP53 Mutant
Description: as §1, §2

YAPC = conditions: Homo sapiens, Pancreas, TP53 Mutant
Description: as §1, §2

Compound: CCOc1cc(C(C)(C)C)ccc1C1=N[C@@](C)(c2ccc(Cl)cc2)[C@@](C)(c2ccc(Cl)cc2)N1C(=O)N1CCN(CCCS(C)(=O)=O)CC1 [COMPOUND A]
- IC50 (A-204): 8.4 µM
- IC50 (A549; A549, A549, Lung, TP53 Wild type): 0.86 µM
- IC50 (A549; A549, A549 cells): 0.9 µM
- IC50 (BFTC-905): 19 µM
- IC50 (CAMA-1): 22 µM
- IC50 (CFPAC-1): 5.7 µM
- IC50 (D-283MED): 1.2 µM
- IC50 (HCC1500): 1 µM
- IC50 (HCC1569): 15 µM
- IC50 (HT-29): 7.4 µM
- IC50 (HeLa S3): 20 µM
- IC50 (Hs 578T): 8.8 µM
- IC50 (KG-1): 15 µM
- IC50 (KMS-20): 13 µM
- IC50 (LoVo): 1.3 µM
- IC50 (MC/CAR; MC/CAR cells): 0.7 µM
- IC50 (MC/CAR; MC/CAR, Lymphocyte B, peripheral blood, TP53 Wild type): 0.69 µM
- IC50 (MCF7; MCF7, MCF7, Breast, mammary gland, TP53 Wild type): 0.75 µM
- IC50 (MCF7; MCF7, MCF7 cells): 0.8 µM
- IC50 (MG-63): 16 µM
- IC50 (MKN-1): 15 µM
- IC50 (NCCIT): 11 µM
- IC50 (NCI-H1568): 9.6 µM
- IC50 (NCI-H1703): 9.1 µM
- IC50 (NCI-H1993): 7.7 µM
- IC50 (NCI-H2009): 9.9 µM
- IC50 (NCI-H2171): 11 µM
- IC50 (NCI-H2227): 16 µM
- IC50 (NCI-H522): 22 µM
- IC50 (NOMO-1): 6.3 µM
- IC50 (NUGC-4; NUGC-4, NUGC-4, Stomach, TP53 Wild type): 0.38 µM
- IC50 (NUGC-4; NUGC-4, NUGC-4 cells): 0.4 µM
- IC50 (PA-1; PA-1, PA-1, Ovary, TP53 Wild type): 0.62 µM
- IC50 (PA-1; PA-1, PA-1 cells): 0.6 µM
- IC50 (PC-1): 1.3 µM
- IC50 (Raji): 3 µM
- IC50 (SK-MEL-30): 19 µM
- IC50 (SK-OV-3): 17 µM
- IC50 (SW579): 16 µM
- IC50 (T84): 5.3 µM
- IC50 (YAPC): 18 µM
